In EP0104826A2, “Immunomodulator and method of use for immunomodulation” (FUJISAWA PHARMACEUTICAL CO., LTD., priority 1982, dated 1984):

Columns and labels:
Format in all cases: in vivo
[1] = tested on: antibody forming capacities; assay: Antibody forming capacity (PFC-SRBC) in mice immunosuppressed with cyclophosphamide; conditions: BDF1 mice; Cyclophosphamide (22.5 mg/kg) i.p. + Saline
Method: Female BDF1 (8 weeks in age) mice were injected intraperitoneally with cyclophosphamide (22.5 mg/kg) 4 days before immunization with 5 x 10^8 SRBC. Samples were administered to mice i.p. from four days before immunization, every day for five days.
Mouse splenic lymphocytes producing antibody against SRBC were quantitated by using Cunningham modification method described previously.

[2] = tested on: antibody forming capacities; assay: Antibody forming capacity (PFC-SRBC) in mice immunosuppressed with mitomycin C; conditions: BDF1 mice; Mitomycin C (1.0 mg/kg) i.p. + Saline
Method: Female BDF1 (8 weeks in age) mice were injected intraperitoneally with mitomycin C (1 mg/kg) from four days before immuization with 5 x 10^8 SRBC, every day for three days. Samples also were administered to mice intraperitoneally from four days before immunization, every day for five days.
At day 9, mice were sacrificed and the number of direct plaque forming cells per spleen was measured by using Cunningham modification method.

thymus = assay: Dexamethasone-induced thymus atrophy in mice; conditions: ddY mice; dexamethasone 1 ug/ml in drinking water, no sample; n=5
Method: Five week-old ddY mice(male) were used. Samples were given subcutaneously twice per day from day 0 to day 2 of the experiment. Five hours after first medication on day 0, mice were supplied with drinking water containing 1 ug/ml of dexamethasone.
At day 2, the weight of thymus of the treated mice was compared with that of the nontreated controls.

## O=P1(N(CCCl)CCCl)NCCCO1 (stereo not drawn) [Cyclophosphamide, reference compound]
[1]
  PFC-SRBC/spleen (average number of 5 mice/group): 8.46 x 10^4 PFC-SRBC/spleen

## CO[C@@]12[C@H](COC(N)=O)C3=C(C(=O)C(C)=C(N)C3=O)N1C[C@@H]1N[C@@H]12 [Mitomycin C, reference compound]
[2]
  PFC-SRBC/spleen (average number of 5 mice/group): 12.65 x 10^4 PFC-SRBC/spleen

## C[C@@H]1C[C@H]2[C@@H]3CCC4=CC(=O)C=C[C@]4(C)[C@@]3(F)[C@@H](O)C[C@]2(C)[C@@]1(O)C(=O)CO [Dexamethasone, reference compound]
thymus
  Thymus weight: 57.2 mg/mouse
